Literature values in patent EP2919756B1, “SOLID LIPID NANOPARTICLES OF ROXITHROMYCIN FOR HAIR LOSS OR ACNE” (Gdanski Uniwersytet Medyczny, priority 2012, dated 2014).

What was measured:
[1] = external application of 0.5% solution for 24 weeks
human hair follicles = human hair follicles in vitro

CC[C@H]1OC(=O)[C@H](C)[C@@H](O[C@H]2C[C@@](C)(OC)[C@@H](O)[C@H](C)O2)[C@H](C)[C@@H](O[C@@H]2O[C@H](C)C[C@H](N(C)C)[C@H]2O)[C@](C)(O)C[C@@H](C)/C(=N\OCOCCOC)[C@H](C)[C@@H](O)[C@]1(C)O [roxithromycin, Roxithromycin]
local or systemic side effects or undesirable action [1]: no local or systemic side effects or undesirable action was recorded
thickening of the hair [1]: Substantial thickening of the hair
restored hair growth ([1]; patients with androgenic hair loss): more than half of the patient population
hair elongation (human hair follicles): caused hair elongation
follicle's passage to the catagen phase (human hair follicles; through inhibition of keratinocyte apoptosis): inhibit the follicle's passage to the catagen phase
